Measured values reported in patent US20250290928A1, “METHOD, KIT AND DEVICE FOR DETECTING EXTRACELLULAR VESICLES” (priority 2022, published 2025).
*: point of attachment. 5FAM = O=C1OC2(c3ccc(O)cc3Oc3cc(O)ccc32)c2ccc(C(=O)*)cc21; TQ2 = quencher

How the values were obtained:
[1] = test system: MMP14 in the HT1080 culture supernatants and the culture medium samples; test: Evaluation of MMP14 activity of HT1080 culture supernatants, culture media and recovered liquids (exoEasy, qEV) with 96-well plate; format: biochemical, Human; conditions: for Fluorescence change: after 2 hours; for change in fluorescence intensity after 2 hours: reporter 2.5 μM, 30° C.
Description: The MMP14 activity was evaluated with a 96-well plate (manufactured by Thermo Fisher Scientific Inc., model number: 137101). […] For measurement wavelengths, an excitation wavelength of 485±20 nm and a fluorescence wavelength of 528±20 nm were used.
Human fibrosarcoma HT1080 cells (KAC Co., Ltd.) were cultured in three kinds of cell culture media described later. In addition, 100 mm cell culture Dish (Nunclon Delta Surface) (manufactured by Thermo Fisher Scientific Inc.) was used as a cell culture container.
Each of the culture supernatants was recovered from each of the dishes in a centrifuge tube, and centrifuged at 2,000×g for 10 minutes at 4° C. Each of the supernatants after the centrifugation was recovered in a fresh container with a small amount of the culture medium remaining so as not to incorporate the precipitated cells. Each of the culture supernatants was filtered through a syringe with a 0.22 μm filter (manufactured by Merck KGaA) so that contaminants such as cell fragments were removed. After that, the filtrate was recovered in a fresh container, and stored at 4° C.
From each of the HT1080 culture supernatants described in the section “(Recovery of Culture Supernatant)”, 100 μL of each of the supernatants after centrifugation and 100 μL of each of the supernatants after filtration through a 0.22 μm filter were each aliquoted, and the buffer (4) was added to the aliquots to provide 1 mL of solutions. The concentration of each of the solutions is 1/10 of the concentration of each of the HT1080 culture supernatants.
In addition, for detection of MMP14 activity, 1 mM Custom #1 was diluted with the buffer (4) to prepare a 5 μM MMP14 detection solution.
50 μL of the MMP14 detection solution was added to 50 μL of each of the samples, a reaction was performed at 30° C., and MMP14 activity was evaluated.
Extracellular vesicles were recovered from 3 mL of each of the recovered culture supernatants with exoEasy Maxi Kit. In this case, the recovery was performed according to the protocol included in the kit. From 3 mL of each of the culture supernatants, 450 μL of each of recovered liquids was obtained. Each of the recovered liquids has a concentration 6.67 times the original concentration of each of the culture supernatants. Each of the recovered liquids was diluted 66.7-fold to prepare 100 μL of a sample at 1/10 of the original concentration of each of the culture supernatants.
Extracellular vesicles were recovered from 3 mL of each of the recovered culture supernatants with qEV. In this case, the recovery was performed according to the protocol included in the kit. From 3 mL of each of the culture supernatants, 700 μL of each of fraction recovered liquids in series was obtained. Each of the recovered liquids was used as a sample as it was.

[2] = target: T1, MMP14 in the MDA-MB-231-derived extracellular vesicles (Homo sapiens, UniProt P50281); test: Digital detection of MDA-MB-231-derived extracellular vesicles through MMP14 activity in liquid droplets; format: biochemical
T1 construct: in terms of intact MMP14 with a molecular weight of 70 kDa
Description: The concentration of the solution is 5 μg/mL.
Liquid droplets were prepared by a pumping method of an SPG emulsification membrane through use of the reaction solution for forming liquid droplets prepared in the foregoing. A dispersed phase and a continuous phase are shown below.
An SPG pumping connector (pore diameter: 10 μm, pore diameter: 5 μm, manufactured by SPG Technology Co., Ltd.) was used as the SPG emulsification membrane, and the number of times of pumping reciprocations was set to 10. Thus, liquid droplets each having a diameter of from about 1 μm to about 10 μm were obtained.
The emulsified liquid prepared in the foregoing were subjected to a reaction through incubation at 37° C. to promote the generation of fluorescence.
Next, the images acquired with an SPG pumping connector with a pore diameter of 10 μm were analyzed in the same manner as in Example 19. The above-mentioned fluorescence microscope images after 4 hours of reaction were subjected to predetermined image processing to provide a particle diameter distribution of the liquid droplets shown in FIG. 67, and obtain a histogram representing the number of liquid droplets each showing a fluorescence intensity included in each fraction of fluorescence intensity obtained by dividing fluorescence intensities into intervals of a constant value in each particle diameter range.
Further, when the concentration of the extracellular vesicles having MMP14 activity was calculated through use of the above-mentioned equation (1) from the total number of liquid droplets in each particle diameter range and the number of positive liquid droplets identified from the histogram, the concentration was able to be estimated as described below.

[3] = Example 32, 4 h, droplet diameter 3-4 μm
[4] = Example 32, 4 h, droplet diameter 4-5 μm
[5] = Example 32, 4 h, droplet diameter 5-6 μm
[6] = Example 32, 4 h, droplet diameter 6-7 μm
[7] = Example 32, 4 h, droplet diameter 7-8 μm
[8] = Example 32, 4 h, droplet diameter <3 μm
[9] = Example 32, 4 h, droplet diameter >8 μm

[5-FAM]GRIGFLRTAK(TQ2)[OH] (5FAM-GRIGFLRTAK(TQ2)-OH) [Custom #1]
Fluorescence change ([1]; Culture medium Exo-FBS, HT1080 culture Absent, None (VI)): 50,117 ΔRFU | Fluorescence change ([1]; Culture medium Exo-FBS, HT1080 culture Present, Centrifugation + filtration (V)): 45,429 ΔRFU | Fluorescence change ([1]; Culture medium Exo-FBS, HT1080 culture Present, Only centrifugation (IV)): 46,172 ΔRFU | Fluorescence change ([1]; Culture medium FBS, HT1080 culture Absent, None (III)): 66,945 ΔRFU | Fluorescence change ([1]; Culture medium FBS, HT1080 culture Present, Centrifugation + filtration (II)): 65,200 ΔRFU | Fluorescence change ([1]; Culture medium FBS, HT1080 culture Present, Only centrifugation (I)): 64,773 ΔRFU | Fluorescence change ([1]; Culture medium MEM (×10, supernatant without dilution), HT1080 culture Present, Centrifugation + filtration): 1,515 ΔRFU | Fluorescence change ([1]; Culture medium MEM (×10, supernatant without dilution), HT1080 culture Present, Only centrifugation): 2,494 ΔRFU | Fluorescence change ([1]; Culture medium MEM, HT1080 culture Absent, None (IX)): −311 ΔRFU | Fluorescence change ([1]; Culture medium MEM, HT1080 culture Present, Centrifugation + filtration (VIII)): 186 ΔRFU | Fluorescence change ([1]; Culture medium MEM, HT1080 culture Present, Only centrifugation (VII)): −240 ΔRFU | change in fluorescence intensity after 2 hours ([1]; Example 56, exoEasy recovered liquid from the Exo-FBS): the fluorescence intensity was changed | change in fluorescence intensity after 2 hours ([1]; Example 56, exoEasy recovered liquid from the MEM): no change in fluorescence intensity was recognized | Fluorescence change ([1]; exoEasy recovered liquid, Culture medium Exo-FBS, HT1080 culture Present): 6,663 ΔRFU | Fluorescence change ([1]; exoEasy recovered liquid, Culture medium MEM, HT1080 culture Present): −313 ΔRFU | Fluorescence change ([1]; qEV recovered liquid, Exo-FBS, HT1080 culture Present, Fraction # 1): 336 ΔRFU | Fluorescence change ([1]; qEV recovered liquid, Exo-FBS, HT1080 culture Present, Fraction # 2): 318 ΔRFU | Fluorescence change ([1]; qEV recovered liquid, Exo-FBS, HT1080 culture Present, Fraction # 3): 271 ΔRFU | Fluorescence change ([1]; qEV recovered liquid, Exo-FBS, HT1080 culture Present, Fraction # 4): 285 ΔRFU | Fluorescence change ([1]; qEV recovered liquid, Exo-FBS, HT1080 culture Present, Fraction # 5): 302 ΔRFU | Fluorescence change ([1]; qEV recovered liquid, Exo-FBS, HT1080 culture Present, Fraction # 6): 325 ΔRFU | Fluorescence change ([1]; qEV recovered liquid, Exo-FBS, HT1080 culture Present, Fraction # 7): 1,869 ΔRFU | Fluorescence change ([1]; qEV recovered liquid, Exo-FBS, HT1080 culture Present, Fraction # 8): 7,249 ΔRFU | Fluorescence change ([1]; qEV recovered liquid, Exo-FBS, HT1080 culture Present, Fraction # 9): 9,417 ΔRFU | Fluorescence change ([1]; qEV recovered liquid, Exo-FBS, HT1080 culture Present, Fraction # 10): 17,731 ΔRFU | Fluorescence change ([1]; qEV recovered liquid, Exo-FBS, HT1080 culture Present, Fraction # 11): 30,226 ΔRFU | Fluorescence change ([1]; qEV recovered liquid, Exo-FBS, HT1080 culture Present, Fraction # 12): 44,826 ΔRFU | Fluorescence change ([1]; qEV recovered liquid, Exo-FBS, HT1080 culture Present, Fraction # 13): 61,704 ΔRFU | Fluorescence change ([1]; qEV recovered liquid, Exo-FBS, HT1080 culture Present, Fraction # 14): 76,810 ΔRFU | Fluorescence change ([1]; qEV recovered liquid, MEM, HT1080 culture Present, Fraction # 1): 245 ΔRFU | Fluorescence change ([1]; qEV recovered liquid, MEM, HT1080 culture Present, Fraction # 2): 285 ΔRFU | Fluorescence change ([1]; qEV recovered liquid, MEM, HT1080 culture Present, Fraction # 3): 245 ΔRFU | Fluorescence change ([1]; qEV recovered liquid, MEM, HT1080 culture Present, Fraction # 4): 304 ΔRFU | Fluorescence change ([1]; qEV recovered liquid, MEM, HT1080 culture Present, Fraction # 5): 1,450 ΔRFU | Fluorescence change ([1]; qEV recovered liquid, MEM, HT1080 culture Present, Fraction # 6): 697 ΔRFU | Fluorescence change ([1]; qEV recovered liquid, MEM, HT1080 culture Present, Fraction # 7): 10,198 ΔRFU | Fluorescence change ([1]; qEV recovered liquid, MEM, HT1080 culture Present, Fraction # 8): 11,966 ΔRFU | Fluorescence change ([1]; qEV recovered liquid, MEM, HT1080 culture Present, Fraction # 9): 1,424 ΔRFU | Fluorescence change ([1]; qEV recovered liquid, MEM, HT1080 culture Present, Fraction # 10): 550 ΔRFU | Fluorescence change ([1]; qEV recovered liquid, MEM, HT1080 culture Present, Fraction # 11): 506 ΔRFU | Fluorescence change ([1]; qEV recovered liquid, MEM, HT1080 culture Present, Fraction # 12): 536 ΔRFU | Fluorescence change ([1]; qEV recovered liquid, MEM, HT1080 culture Present, Fraction # 13): 489 ΔRFU | Fluorescence change ([1]; qEV recovered liquid, MEM, HT1080 culture Present, Fraction # 14): 446 ΔRFU | Extracellular vesicle concentration ([2]; Example 32): 1.9×10^9 /μg of protein | Concentration (extracellular vesicles having MMP14 activity) [2, 3]: 1.06e+10 mL⁻¹ | Expected value λ [2, 3]: 0.217 | Number of positives [2, 3]: 15 | Positive ratio [2, 3]: 0.195 | Concentration (extracellular vesicles having MMP14 activity) [2, 4]: 9.05e+09 mL⁻¹ | Expected value λ [2, 4]: 0.416 | Number of positives [2, 4]: 16 | Positive ratio [2, 4]: 0.340 | Concentration (extracellular vesicles having MMP14 activity) [2, 5]: 9.85e+09 mL⁻¹ | Expected value λ [2, 5]: 0.816 | Number of positives [2, 5]: 29 | Positive ratio [2, 5]: 0.558 | Concentration (extracellular vesicles having MMP14 activity) [2, 6]: 9.03e+09 mL⁻¹ | Expected value λ [2, 6]: 1.293 | Number of positives [2, 6]: 37 | Positive ratio [2, 6]: 0.725 | Concentration (extracellular vesicles having MMP14 activity) [2, 7]: 9.01e+09 mL⁻¹ | Expected value λ [2, 7]: 1.910 | Number of positives [2, 7]: 23 | Positive ratio [2, 7]: 0.852 | Concentration (extracellular vesicles having MMP14 activity) [2, 8]: 1.04e+10 mL⁻¹ | Expected value λ [2, 8]: 0.047 | Positive ratio [2, 8]: 0.046 | Concentration (extracellular vesicles having MMP14 activity) [2, 9]: 8.68e+09 mL⁻¹ | Expected value λ [2, 9]: 3.296 | Number of positives [2, 9]: 26 | Positive ratio [2, 9]: 0.963 | Number of positives ([2]; Example 32, SPG pore 10 μm, EV 5 μg/mL, reporter 5 μM, 37° C., 4 h, droplet diameter <3 μm): 8 | average of the extracellular vesicle concentrations ([2]; Example 32, all droplet diameter ranges, reaction solution 5.0 μg of protein/mL): 9.5e+09 mL⁻¹
